The structures appear in SMILES notation.

The assay is filed under the species Rattus norvegicus. Description: Inhibition of rat recombinant geranylgeranyltransferase type I expressed in Escherichia coli assessed as residual enzyme activity for geranylgeranylation of K-Ras4B at 50 uM incubated for 30 mins in presence of [3H]GGPP by scintillation counting assay relative to control.
For the compound `Cc1ccc([C@@H]2CC=C(C(=O)O)[C@H](c3cccc(Cl)c3)N2S(=O)(=O)c2ccc(C)cc2)cc1`, the Activity was 69.4%.

For `Cc1ccc(S(=O)(=O)N2[C@@H](c3cccc(Cl)c3)C(C(=O)O)=CC[C@H]2c2cccs2)cc1`, the Activity stood at 79.5%.

Consider `CS(=O)(=O)N1[C@@H](c2cccc(F)c2)C(C(=O)O)=CC[C@H]1c1ccccc1`, for which the Activity is 86.6%.

Turning to `CC(=O)C1=CC[C@@H](c2ccc(C)cc2)N(S(=O)(=O)c2ccccc2C)C1`, the Activity is 85.3%.

As to `COc1ccc([C@@H]2CC=C(C(C)=O)CN2S(=O)(=O)c2ccccc2)cc1`, the Activity worked out at 110%.

In the case of `Cc1ccc([C@@H]2C[C@@H](SC3CCCC3)[C@H](C(=O)O)CN2S(=O)(=O)c2ccc(Cl)cc2)cc1`, the Activity was 93.2%.

In the case of `COC(=O)c1ccccc1S(=O)(=O)N1[C@@H](c2ccc(Br)cc2)C(C(=O)O)=CC[C@H]1c1ccc(C)cc1`, the Activity worked out at 77.4%.

Regarding `Cc1ccc([C@@H]2CC=C(C(=O)O)[C@H](c3cccc(C)c3)N2S(=O)(=O)c2ccc(Cl)cc2)cc1`, the Activity amounted to 89.9%.

As for `CCOc1ccc([C@@H]2C[C@@H](SC3CCCC3)[C@H](C(=O)O)CN2S(=O)(=O)c2ccc(C)cc2)cc1`, the Activity is 84.6%.

With `Cc1ccc(S(=O)(=O)N2C[C@@H](C(=O)O)[C@H](SCc3ccc(C(C)(C)C)cc3)C[C@H]2c2ccc3c(c2)OCO3)cc1`, the Activity is 59.3%.

Turning to `Cc1ccc([C@@H]2C[C@@H](Sc3ccccc3)[C@H](C(=O)O)CN2S(=O)(=O)c2ccc(Cl)cc2)cc1`, the Activity turned out to be 87.1%.

With `Cc1ccc(S(=O)(=O)N2[C@@H](c3ccc(F)cc3)C(C(=O)O)=CC[C@H]2c2ccc(C(C)C)cc2)cc1`, the Activity came to 50.9%.

Consider `Cc1ccc(S(=O)(=O)N2[C@@H](c3cccc(Br)c3)C(C(=O)O)=CC[C@H]2c2cccs2)cc1`, for which the Activity turned out to be 55%.

With `COc1ccc([C@@H]2CC=C(C(=O)O)[C@H](c3ccc(F)cc3)N2S(=O)(=O)c2ccccc2)cc1`, the Activity amounted to 67.7%.

With `Cc1ccc(S(=O)(=O)N2[C@@H](c3cccc(Br)c3)C(C(=O)O)=CC[C@H]2c2ccc(F)cc2)cc1`, the Activity was determined as 72.2%.

On to `Cc1ccccc1S(=O)(=O)N1C[C@@H](C(=O)O)[C@H](SCC(C)C)C[C@H]1c1ccc(Cl)cc1`, for which the Activity was found to be 76.1%.

As to `Cc1ccc(S(=O)(=O)N2[C@@H](c3ccc(Br)cc3)C(C(=O)O)=CC[C@H]2c2ccc(F)cc2)cc1`, the Activity was 62.6%.

On to `Cc1ccc([C@@H]2CC=C(C(=O)O)[C@H](c3cccc(Br)c3)N2S(=O)(=O)c2ccccc2)cc1`, for which the Activity amounted to 67.2%.

On to `Cc1ccc(S(=O)(=O)N2[C@@H](c3cccc(F)c3)C(C(=O)O)=CC[C@H]2c2cccc(C)c2)cc1`, for which the Activity amounted to 75.6%.

`CCS[C@@H]1C[C@@H](c2cc(OC)c(OC)c(OC)c2)N(S(=O)(=O)c2ccc(C)cc2)C[C@H]1C(=O)O`: the Activity is 90.4%.

Take `Cc1ccc([C@@H]2CC=C(C(=O)O)[C@H](c3cccc(F)c3)N2S(=O)(=O)c2ccccc2)cc1`: the Activity is 64.9%.

On to `Cc1ccc([C@@H]2CC=C(C(=O)O)[C@H](c3ccc(C(C)(C)C)cc3)N2S(C)(=O)=O)cc1`, for which the Activity is 78.2%.

`CCCS[C@@H]1C[C@@H](c2cc(OC)c(OC)c(OC)c2)N(S(=O)(=O)c2ccc(C)cc2)C[C@H]1C(=O)O`: the Activity was found to be 75%.

On to `C=CCS[C@@H]1C[C@@H](c2ccc(OC)c(OC)c2)N(S(=O)(=O)c2ccc(C)cc2)C[C@H]1C(=O)O`, for which the Activity was determined as 109%.

For the compound `Cc1ccc(S(=O)(=O)N2[C@@H](c3ccc(Br)cc3)C(C(=O)O)=CC[C@H]2c2ccc3c(c2)OCO3)cc1`, the Activity is 74.4%.

As to `COc1ccc(S[C@@H]2C[C@@H](c3ccc(C)cc3)N(S(C)(=O)=O)C[C@H]2C(=O)O)cc1`, the Activity was 99%.

As to `Cc1ccc(S(=O)(=O)N2C[C@@H](C(=O)O)[C@H](Sc3ccc(Cl)cc3)C[C@H]2c2ccc3c(c2)OCO3)cc1`, the Activity is 90.9%.

As for `CCc1ccc([C@@H]2C=CCCN2S(=O)(=O)c2ccc(C)cc2)cc1`, the Activity is 99.5%.

Turning to `COC(=O)c1ccccc1S(=O)(=O)N1[C@@H](c2ccc(C)cc2)C(C(=O)O)=CC[C@H]1c1ccc(C)cc1`, the Activity was 89.4%.

In the case of `COc1ccc([C@@H]2C[C@@H](SCCc3ccccc3)[C@H](C(=O)O)CN2S(=O)(=O)c2ccc(C)cc2)cc1OC`, the Activity was found to be 44.1%.

As to `CCCCS[C@@H]1C[C@@H](c2cccc(OC)c2)N(S(=O)(=O)c2ccc(C)cc2)C[C@H]1C(=O)O`, the Activity was 83.9%.

For `CCOc1ccc([C@@H]2C[C@@H](SCc3ccccc3)[C@H](C(=O)O)CN2S(=O)(=O)c2ccc(C)cc2)cc1`, the Activity was found to be 50.9%.

Consider `Cc1ccc(S(=O)(=O)N2[C@@H](c3ccc(Br)cc3)C(C(=O)O)=CC[C@H]2c2cccc(C)c2)cc1`, for which the Activity came to 73.5%.

Regarding `CC(C)(C)c1ccc([C@H]2C(C(=O)O)=CC[C@@H](c3ccccc3)N2S(C)(=O)=O)cc1`, the Activity was 73.3%.

On to `CCc1ccc([C@@H]2C[C@@H](Sc3ccccc3)[C@H](C(=O)O)CN2S(=O)(=O)c2ccc(C)cc2)cc1`, for which the Activity was 45.7%.

Turning to `CCCS[C@@H]1C[C@@H](c2ccc3c(c2)OCO3)N(S(=O)(=O)c2ccc(C)cc2)C[C@H]1C(=O)O`, the Activity came out at 83.6%.

Regarding `COc1ccc([C@@H]2C[C@@H](Sc3ccc(C)cc3)[C@H](C(=O)O)CN2S(=O)(=O)c2ccc(C)cc2)cc1OC`, the Activity came to 105%.

On to `COc1cc([C@@H]2C[C@@H](SCc3ccccc3)[C@H](C(=O)O)CN2S(=O)(=O)c2ccc(C)cc2)cc(OC)c1OC`, for which the Activity is 63.7%.

Regarding `CC(=O)C1=CC[C@@H](c2ccc(Cl)cc2)N(S(=O)(=O)c2ccc(C)cc2)C1`, the Activity turned out to be 80.8%.

For the compound `Cc1ccc(S(=O)(=O)N2C[C@@H](C(=O)O)[C@H](SC3CCCC3)C[C@H]2c2ccc(Cl)cc2)cc1`, the Activity was 94.7%.

`COc1ccc([C@@H]2CC=C(C(=O)O)[C@H](c3ccc(C)cc3)N2S(=O)(=O)c2ccc(C)cc2)cc1`: the Activity amounted to 73.8%.

Consider `COc1ccc([C@@H]2C[C@@H](SCCC(C)C)[C@H](C(=O)O)CN2S(=O)(=O)c2ccccc2)cc1`, for which the Activity is 96.7%.

Regarding `CCCCCCS[C@@H]1C[C@@H](c2cccc(Br)c2)N(S(=O)(=O)c2ccc(C)cc2)C[C@H]1C(=O)O`, the Activity is 68.9%.

`CCS[C@@H]1C[C@@H](c2ccc(OC)cc2)N(S(=O)(=O)c2ccc(Cl)cc2)C[C@H]1C(=O)O`: the Activity was found to be 72.9%.

For the compound `CCCCCCS[C@@H]1C[C@@H](c2ccccc2F)N(S(=O)(=O)c2ccc(C)cc2)C[C@H]1C(=O)O`, the Activity amounted to 75.3%.

On to `COc1ccc([C@@H]2C[C@@H](Sc3ccc(C)cc3)[C@H](C(=O)O)CN2S(=O)(=O)c2ccc(Cl)cc2)cc1`, for which the Activity turned out to be 83.2%.

In the case of `COc1ccc([C@@H]2CC=C(C(=O)O)[C@H](c3ccc(Cl)cc3)N2S(=O)(=O)c2ccc(C)cc2)cc1`, the Activity was 91.4%.

On to `COc1ccc([C@@H]2C[C@@H](SCc3ccccc3)[C@H](C(=O)O)CN2S(=O)(=O)c2ccc(C)cc2)cc1OC`, for which the Activity came to 54.5%.

For the compound `Cc1ccc([C@@H]2C[C@@H](SCC(C)C)[C@H](C(=O)O)CN2S(C)(=O)=O)cc1`, the Activity was 73.1%.

Turning to `Cc1ccc(S(=O)(=O)N2[C@@H](c3ccc(Cl)cc3)C(C(=O)O)=CC[C@H]2c2cccc(Cl)c2)cc1`, the Activity stood at 60.4%.

For `COC(=O)c1ccccc1S(=O)(=O)N1[C@@H](c2cccc(Br)c2)C(C(=O)O)=CC[C@H]1c1ccc(C)cc1`, the Activity stood at 64.9%.

In the case of `COc1ccc([C@@H]2CC=C(C(C)=O)CN2S(=O)(=O)c2ccccc2C)cc1`, the Activity is 77.3%.

Turning to `Cc1ccc(S[C@@H]2C[C@@H](c3ccc(C)cc3)N(S(=O)(=O)c3ccccc3)C[C@H]2C(=O)O)cc1`, the Activity is 91.3%.

`Cc1ccc(S(=O)(=O)N2[C@@H](c3ccc(C(C)(C)C)cc3)C(C(=O)O)=CC[C@H]2c2ccc(C#N)cc2)cc1`: the Activity came to 87.7%.

Regarding `Cc1ccc([C@@H]2CC=C(C(=O)O)[C@H](c3cccc(Br)c3)N2S(C)(=O)=O)cc1`, the Activity turned out to be 66.6%.

As for `Cc1ccc([C@@H]2CC=C(C(=O)O)[C@H](c3ccc(C(C)(C)C)cc3)N2S(=O)(=O)c2ccccc2)cc1`, the Activity is 81.6%.

Consider `C=CCS[C@@H]1C[C@@H](c2ccc(C)cc2)N(S(=O)(=O)c2ccc(Cl)cc2)C[C@H]1C(=O)O`, for which the Activity was found to be 74.3%.

Take `CCc1ccc([C@@H]2CC=C(C(=O)O)[C@H](c3ccc(F)cc3)N2S(=O)(=O)c2ccc(C)cc2)cc1`: the Activity was 55.2%.

As for `COc1cc([C@@H]2C[C@@H](SCC(C)C)[C@H](C(=O)O)CN2S(=O)(=O)c2ccc(C)cc2)cc(OC)c1OC`, the Activity came out at 98.3%.

In the case of `CCc1ccc([C@@H]2C[C@@H](SCCC(C)C)[C@H](C(=O)O)CN2S(=O)(=O)c2ccc(C)cc2)cc1`, the Activity worked out at 71.9%.

As for `O=C(O)C1=CC[C@@H](c2ccc(Cl)cc2)N(S(=O)(=O)c2ccc(Cl)cc2)[C@H]1c1ccc(F)cc1`, the Activity is 43.5%.

As for `Cc1ccc(S(=O)(=O)N2[C@@H](c3cccc(Cl)c3)C(C(=O)O)=CC[C@H]2c2ccccc2F)cc1`, the Activity was determined as 70.1%.

With `Cc1cccc([C@H]2C(C(=O)O)=CC[C@@H](c3ccc(Cl)cc3)N2S(C)(=O)=O)c1`, the Activity was determined as 45.5%.

In the case of `CCCCS[C@@H]1C[C@@H](c2ccc(OC)cc2)N(S(=O)(=O)c2ccccc2C)C[C@H]1C(=O)O`, the Activity was 88.8%.

With `COc1ccc([C@@H]2C[C@@H](SCC(C)C)[C@H](C(=O)O)CN2S(=O)(=O)c2ccc(C)cc2)cc1`, the Activity is 79.3%.

As to `COc1ccc([C@@H]2CC=C(C(=O)O)[C@H](c3cccc(F)c3)N2S(=O)(=O)c2ccc(C)cc2)cc1`, the Activity came out at 87.5%.

Turning to `Cc1ccc(S(=O)(=O)N2[C@@H](c3ccc(F)cc3)C(C(=O)O)=CC[C@H]2c2cccc(F)c2)cc1`, the Activity amounted to 63.4%.

With `CCCCS[C@@H]1C[C@@H](c2ccc(Cl)cc2)N(S(=O)(=O)c2ccccc2C)C[C@H]1C(=O)O`, the Activity was found to be 87.5%.

`CCc1ccc([C@@H]2CC=C(C(=O)O)[C@H](c3cccc(Br)c3)N2S(=O)(=O)c2ccc(C)cc2)cc1`: the Activity is 75.4%.

On to `Cc1ccc([C@@H]2CC=C(C(=O)O)[C@H](c3cccc(C)c3)N2S(=O)(=O)c2ccc(C)cc2)cc1`, for which the Activity came out at 66.3%.

The values are drawn from ChEMBL document CHEMBL4421722, “Inhibitors of protein prenyltransferases” (2013).
